How the values were obtained:
human PPARγ = target: T1, human PPARγ (Homo sapiens, UniProt P37231); assay: Luciferase assay using human PPARγ (Gal4-PPARγ ligand binding domain chimeric receptor, CV-1 host cells); format: cell-based; conditions: PPARγ agonistic activity; compound 10 μM; luciferase activity of troglitazone (10 μM) defined as 1.0; CV-1 cells
T1 construct: expressed in transfected cells; host or cells: CV-1 cells
T1 sequence (P37231 204-505): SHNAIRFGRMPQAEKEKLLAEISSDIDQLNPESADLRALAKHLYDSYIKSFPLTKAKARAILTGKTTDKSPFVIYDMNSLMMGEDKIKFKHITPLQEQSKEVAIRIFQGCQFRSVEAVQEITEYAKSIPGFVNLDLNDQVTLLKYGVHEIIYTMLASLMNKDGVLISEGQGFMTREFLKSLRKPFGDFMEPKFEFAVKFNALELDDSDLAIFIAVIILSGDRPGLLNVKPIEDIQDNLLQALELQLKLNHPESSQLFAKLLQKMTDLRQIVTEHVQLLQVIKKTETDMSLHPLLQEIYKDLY

human PPARα = target: T2, human PPARα (Homo sapiens, UniProt Q07869); assay: Luciferase assay using human PPARα (Gal4-PPARα ligand binding domain chimeric receptor, CV-1 host cells); format: cell-based; conditions: PPARα agonistic activity; compound 10 μM; luciferase activity of carbacyclin (10 μM) defined as 1.0; CV-1 cells
T2 construct: expressed in transfected cells; host or cells: CV-1 cells
T2 sequence (Q07869 167-468): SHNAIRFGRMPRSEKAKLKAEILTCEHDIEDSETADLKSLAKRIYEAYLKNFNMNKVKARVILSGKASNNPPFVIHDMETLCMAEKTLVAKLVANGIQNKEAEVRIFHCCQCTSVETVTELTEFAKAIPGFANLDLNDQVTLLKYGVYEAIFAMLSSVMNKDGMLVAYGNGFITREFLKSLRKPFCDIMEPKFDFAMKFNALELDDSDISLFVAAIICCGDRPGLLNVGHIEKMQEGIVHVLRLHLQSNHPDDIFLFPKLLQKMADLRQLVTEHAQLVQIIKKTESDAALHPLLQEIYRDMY

SD rats = assay: Hypocholesterolemic and hypolipidemic effects in SD rats given hypercholesterolemic food; format: in vivo; conditions: male SD rats, orally in 0.5% CMC, then hypercholesterolemic food, blood at 9:00 of the next day; for IG level: control 163 ± 18; for IC level: control 167 ± 13; for NEFA level: control 615 ± 80
Description: Male, six-weeks old SD rats (five rats per group) were left to take milled diet and water ad libitum and were acclimatized for 1 week.
At 9:00 on the first day of the experiment (Day 0), blood sampling was done from tail vein. The rats were divided into some groups according to body weight, triglyceride (TG), non-esterified fatty acid (NEFA) and total cholesterol (TC) levels to minimize differences of the parameters among the groups. At 17:00 of the day, the compound of the present invention dissolved in 0.5% aqueous solution of carboxymethylcellulose (CMC) was orally administered, and thereafter, with hypercholesterolemic food (5.5% peanut oil, 1.5% cholesterol and 0.5% cholic acid were mixed with milled CRF-1 diet, Charles River Inc.) was given to the rats.
At 9:00 of the next day, blood sampling was done from tail vein. The lipid levels in blood (TG, NEFA and TC levels) after administration of the compounds of the present invention were measured. There was no significant difference of the food intake between the control group (provided only 0.5% CMC) and the group treated with the compounds of the present invention.

KKAy/Ta mice = assay: Hypoglycemic and hypolipidemic effects in KKAy/Ta mice; format: in vivo; conditions: male KKAy/Ta mice, food mixture containing 0.03% (w/w) compound (43-47 mg/kg/day conversion value), 4 days; for TG level: control 439 ± 234; for blood sugar level: control 520 ± 147
Description: Male, 7-weeks old KKAy/Ta mice weighed from 35 to 40 g (five mice per group) were pre-breaded for approximately one week and acclimatized for three days on milled diet. On the first day of the experiment (Day 0), mice were divided into some groups according to weight, plasma glucose and triglyceride (TG) levels to minimize the differences among groups. […] At 13:00 of the third day, blood samples were collected to measure glucose and TG levels. Additionally, there was no significant difference in the food intake between control group (milled diet only) and compounds-treated group (milled diet containing 0.03% compounds).

| Compound | Relative Activity to a positive control compound (troglitazone = 1) (human PPARγ) | Relative Activity to a positive control compound (carbacyclin = 1) (human PPARα) | IG level (SD rats) | IC level (SD rats) | NEFA level (SD rats) | TG level (KKAy/Ta mice) | blood sugar level (KKAy/Ta mice) |
| --- | --- | --- | --- | --- | --- | --- | --- |
| Cc1ccc(-c2nc(Cc3ccc(/C=C/CSCC(=O)O)o3)c(C)o2)cc1 [Example 3(1), 2-((2E)-3-(5-(5-methyl-2-(4-methylphenyl)oxazol-4-ylmethyl)furan-2-yl)-2-propenylthio)acetic acid] | 1.1 | 1.5 | 92 ± 26 mg/dL | 107 ± 4 mg/dL | 394 ± 49 µEq/l | 44 ± 11 mg/dL | 253 ± 27 mg/dL |
| Cc1oc(-c2ccc3c(c2)OCO3)nc1Cc1ccc(/C=C/CSCC(=O)O)o1 [Example 3(2), 2-((2E) -3-(5-(5-methyl-2-(1,3-dioxaindan-5-yl)oxazol-4-ylmethyl)furan-2-yl)-2-propenylthio)acetic acid] | 2.3 | 3.1 | 62 ± 7 mg/dL | 86 ± 6 mg/dL | 145 ± 18 µEq/l | 45 ± 12 mg/dL | 243 ± 37 mg/dL |
| CCc1ccc(-c2nc(Cc3ccc(/C=C/CSCC(=O)O)o3)c(C)o2)cc1 [Example 3(3), 2-((2E)-3-(5-(5-methyl-2-(4-ethylphenyl)oxazol-4-ylmethyl)furan-2-yl)-2-propenylthio)acetic acid] | 2.2 | 1.8 | 79 ± 12 mg/dL | 91 ± 4 mg/dL | 213 ± 31 µEq/l | 31 ± 15 mg/dL | 234 ± 31 mg/dL |
| Cc1oc(-c2ccccc2)nc1Cc1ccc(/C=C/CSCC(=O)O)o1 [Example 3, 2-((2E)-3-(5-(5-methyl-2-phenyloxazol-4-ylmethyl)furan-2-yl)-2-propenylthio)acetic acid] | 2.3 | 2.6 | 73 ± 7 mg/dL | 87 ± 5 mg/dL | 207 ± 25 µEq/l | 43 ± 12 mg/dL | 260 ± 37 mg/dL |

From patent US6821994B2, “Carboxylic acid derivative and a pharmaceutical composition containing the derivative as active ingredient” (Ono Pharmaceutical Co., Ltd., priority 1998, dated 2004)
